US5416231A, “Prostaglandin I2 derivatives” (Asahi Glass Company, Ltd., priority 1990, dated 1995)
In brackets after ≈: the same amount, converted by molar mass. Counter-ions that a name gives are not always drawn.

Tests used:
platelet aggregation [1] = assay: Inhibitory activities on platelet aggregation, in vitro (ADP-induced); assay type: cell-based, guinea pig (Hartley strain); details: platelet rich plasma, 10 minutes incubation, adenosine diphosphate 1 micro M; for IC50: Cavia porcellus, Platelet, 10 min
Method: (§1) From a guinea pig (Hartley strain), citric acid-added blood was obtained by a cardiac puncture. The blood was centrifuged at 120×g for 10 minutes, and the supernatant platelet rich plasma was separated. Measurement of platelet aggregation was conducted by means of an aggregometer in accordance with the Bone's nephelometry (G. V. R. Bone; Nature, vol 194, p 927, 1962). In a test in vitro, a test compound was added to the platelet rich plasma, and the mixture was incubated for 10 minutes. Then, adensoine diphosphate (1 micro M) was added to induce platelet aggregation. The degree of aggregation was represented by the maximum change in the light transmittance (the maximum aggregation rate) within 5 minutes after the addition of adenosine diphosphate, and the results are shown by a 50% inhibitory concentration. In a test ex vivo, a test compound was dissolved in ethanol, then suspended in a 0.5% tragacanth solution or in a 1% β-cyclodextrin solution and orally administered. From blood obtained by a cardiac puncture 30 minutes after the administration, a platelet rich plasma was prepared, and platelet aggregation was measured in the same manner as in the case of the test in vitro.

platelet aggregation [2] = assay: Inhibitory activities on platelet aggregation, ex vivo after oral administration (ADP-induced); assay type: in vivo, guinea pig (Hartley strain); details: 30 minutes after administration; for minimal effective dose: Cavia porcellus, Platelet, 0.5 h, read-out: ex vivo MED (minimum effective dose showing significant inhibitory effects, P < 0.05)
Method: as §1

[3] = system: vasopressin-induced ST depression; assay: Anti-anginal activities (Preventive activities on vasopressin-induced ST depression); assay type: in vivo, male rat (Donryou strain); details: for minimal effective dose: Rattus norvegicus, read-out: Oral administration MED (minimum effective dose showing a significant preventive activity); for minimal effective dose / Oral administration MED (minimum effective dose showing a significant preventive activity): oral, 30 minutes prior to vasopressin (0.2 IU/kg)
Method: Vasopressin (0.2 IU/kg) was administered from the femoral vein of a male rat (Donryou strain) anesthetized with pentobarbital, and the electrocardiogram was recorded for 5 seconds each at intervals of 30 seconds over a period of 5 minutes after the administration. The depression of ST-segment (the average of five pulses) was calculated on the electrocardiogram. The test compound was dissolved in ethanol and intravenously administered 2 minutes prior to the administration of vasopressin, or after being dissolved in ethanol, suspended in a 0.5% tragacanth solution or in a 1% β-cyclodextrin solution and orally administered 30 minutes prior to the administration of vasopressin. The differences of the ST depression between the test compound-administered group and the non-treated control group (5 animals for each group) were analysed by two-way layout analysis of variance.

male mice of ddY strain = assay: Acute toxicity, oral; assay type: in vivo; details: 20 mg/kg, 1% β-cyclodextrin solution, 7 days
Method: To male mice of ddY strain weighing 25-32 g (five animals per each group), a predetermined dose of a test compound dissolved in a small amount of ethanol and then diluted with a 1% β-cyclodextrin solution, was orally administered, and the mortality was recorded over a period of 7 days after the administration.

[4] = Solvent Y: 1% β-cyclodextrin solution
[5] = Solvent X: 0.5% tragacanth solution

methyl ester of (1S*,3R*)-2,4-ethylene-7α-flouro-17,20-dimethylPGI2 [Compound C]
in vitro IC50 (platelet aggregation [1]): 5.50 ng/mL

CCCCC(C)C[C@H](O)/C=C/[C@@H]1[C@@H]2[C@H](C[C@H]1O)O/C(=C\CC1CC1C(=O)O)[C@@H]2F (stereo partly drawn) [Compound A, sodium salt of 2,3-methylene-7α-fluoro-17,20-dimethylPGI2]
IC50 (platelet aggregation [1]): 18.3 ng/mL

CCCCC(C)C[C@H](O)/C=C/[C@@H]1[C@@H]2[C@H](C[C@H]1O)O/C(=C\C1CC(C(=O)OC)C1)[C@@H]2F (stereo partly drawn) [Compound D-b, methyl ester of 2,4-methylene-7α-fluoro-17,20-dimethylPGI2]
ex vivo MED (minimum effective dose showing significant inhibitory effects, P < 0.05) (platelet aggregation [2]; [4]): 0.3 mg/kg
minimal effective dose [3, 4]: 0.1 mg/kg
Number of dead animals/Number of test animals (male mice of ddY strain): 0/5
in vitro IC50 (platelet aggregation [1]): 1.50 ng/mL

CCCCC(C)C[C@H](O)/C=C/[C@@H]1[C@@H]2[C@H](C[C@H]1O)O/C(=C\C1CC(C(=O)O)C1)[C@@H]2F (single isomer, unassigned) [Compound E-a, sodium salt of 2,4-methylene-7α-fluoro-17,20-dimethylPGI2]
Oral administration MED (minimum effective dose showing a significant preventive activity) [3, 4]: 0.1 mg/kg
IC50 (platelet aggregation [1]): 1.13 ng/mL

CCCCC[C@H](O)/C=C/[C@@H]1[C@H]2C/C(=C/CCCC(=O)O)O[C@H]2C[C@H]1O [Compound F, natural PGI2, reference compound]
minimal effective dose (platelet aggregation [2]; [4]): > 10 mg/kg

methyl ester of (1S*,3S*)-2,4-ethylene-7α-fluoro-17,20-dimethylPGI2 [Compound B-b]
ex vivo MED (minimum effective dose showing significant inhibitory effects, P < 0.05) (platelet aggregation [2]; [5]): 0.3 mg/kg
Intravenous administration MED (minimum effective dose showing a significant preventive activity) ([3]; intravenous, in ethanol, 2 minutes prior to vasopressin (0.2 IU/kg)): 0.001 mg/kg
Oral administration MED (minimum effective dose showing a significant preventive activity) [3, 5]: 0.01 mg/kg
in vitro IC50 (platelet aggregation [1]): 0.87 ng/mL

CCCCC(C)C[C@H](O)/C=C/[C@@H]1[C@@H]2[C@H](C[C@H]1O)O/C(=C\C1CC(C(=O)OC)C1)[C@@H]2F (stereo partly drawn) [Compound D-a, methyl ester of 2,4-methylene-7α-fluoro-17,20-dimethylPGI2]
minimal effective dose (platelet aggregation [2]; [4]): 0.3 mg/kg
IC50 (platelet aggregation [1]): 2.88 ng/mL (≈ 6.78 nM)

CCCCC(C)C[C@H](O)/C=C/[C@@H]1[C@@H]2[C@H](C[C@H]1O)O/C(=C\C1CC(C(=O)O)C1)[C@@H]2F (single isomer, unassigned) [Compound E-b, sodium salt of 2,4-methylene-7α-fluoro-17,20-dimethylPGI2]
minimal effective dose (platelet aggregation [2]; [4]): 0.3 mg/kg
minimal effective dose [3, 4]: 0.1 mg/kg
Number of dead animals/Number of test animals (male mice of ddY strain): 0/5
in vitro IC50 (platelet aggregation [1]): 1.70 ng/mL
